Values of other authors as cited in patent US6676956B1, “Oil-in-water emulsion for protecting human organs against peroxidation” (Fresenius Kabi Austria GmbH, priority 1998, dated 2004).

Legend:
[1] = per 1 g of the form
[2] = tested on: skeletal muscles; conditions: 500 mg given directly before reperfusion
[3] = tested on: lipidperoxidation

## Cc1c(C)c2c(c(C)c1O)CCC(C)(CCCC(C)CCCC(C)CCCC(C)C)O2 (single isomer, unassigned) [SRR-stereoisomer, 2,5,7, 8 tetramethyl-2-(4′,8′,12′-trimethyltridecyl)chroman-6-ol]
[1]
  effectiveness of 1 g corresponds to that of RRR-α-tocopherol: 0.31 g

## CC(=O)Oc1c(C)c(C)c2c(c1C)CCC(C)(CCCC(C)CCCC(C)CCCC(C)C)O2 (racemic) [all-rac-tocopherolacetate]
[2]
  increase in lipid peroxides in the serum (TBARS): prevented
  increase in serum creatine-phosphokinase during the reperfusion phase: suppressed
  ischaemia-reperfusion damage: reduced

## Cc1c(C)c2c(c(C)c1O)CCC(C)(CCCC(C)CCCC(C)CCCC(C)C)O2 (racemic) [all-rac-α-tocopherol, 2,5,7, 8 tetramethyl-2-(4′,8′,12′-trimethyltridecyl)chroman-6-ol]
[1]
  effectiveness of 1 g corresponds to that of RRR-α-tocopherol: 0.74 g
[3]; 0.5 mg/day via central vein catheter for 3 days
  α-tocopherol level in the cell-associated aortic endothelium: significant increase

## vitamin E
[3]; 0.5 mg/day intravenously for 3 days vs 1.0 mg/day orally
  vitamin E concentration in the plasma: significantly higher
[3]; 0.5 mg/day intravenously for 3 days vs control animals
  concentration of TBARS in the plasma: significantly lower
